Source: patent US8791102B2, “Acetanilide sphingosine-1-phosphate receptor antagonists” (Exelixis, Inc., priority 2008, dated 2014)

Biological target: T1, human S1P1 receptors (Homo sapiens, UniProt P21453)
T1 construct: host or cells: HEK293
Assay: S1P1R antagonist assay (fluorescent membrane potential dye, cAMP readout)
Type: cell-based
Conditions: HEK293 cells expressing human S1P1 receptors and CNG channel; 500 nM NECA; S1P1R agonist 10 nM; 90 minutes; read-out: EC50 or IC50 value

T1 sequence (P21453 whole entry): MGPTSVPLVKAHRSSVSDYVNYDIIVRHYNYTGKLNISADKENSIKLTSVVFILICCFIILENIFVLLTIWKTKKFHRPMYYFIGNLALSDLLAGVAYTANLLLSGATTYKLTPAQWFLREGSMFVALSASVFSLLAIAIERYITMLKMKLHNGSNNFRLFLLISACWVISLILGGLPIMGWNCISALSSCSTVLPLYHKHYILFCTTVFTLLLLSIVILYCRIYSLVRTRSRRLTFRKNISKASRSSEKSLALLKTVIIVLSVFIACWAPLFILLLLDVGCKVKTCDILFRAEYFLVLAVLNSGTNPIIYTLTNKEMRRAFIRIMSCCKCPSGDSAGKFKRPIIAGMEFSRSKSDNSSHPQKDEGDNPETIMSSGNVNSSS

IC50 | Compound
≤ 300 nM | O=C(Cn1nnc2ccccc21)N[C@@H](COCc1ccccc1)C(=O)Nc1ccc(Oc2ccc(F)cc2)cc1 [Compound 151, (S)-2-(2-(1H-benzo[d][1,2,3]triazol-1-yl)acetamido)-3-(benzyloxy)-N-(4-(4-fluorophenoxy)phenyl)propanamide]
≤ 300 nM | Cc1n[nH]c(C)c1CC(=O)N[C@@H](COCc1ccccc1)C(=O)Nc1ccc(Oc2ccc(F)cc2)cc1 [Compound 152, (S)-3-(benzyloxy)-2-(2-(3,5-dimethyl-1H-pyrazol-4-yl)acetamido)-N-(4-(4-fluorophenoxy)phenyl)propanamide]
≤ 300 nM | Cc1cn(CC(=O)N[C@@H](COCc2ccccc2)C(=O)Nc2ccc(Oc3ccc(F)cc3)cc2)nn1 [Compound 153, (S)-3-(benzyloxy)-N-(4-(4-fluorophenoxy)phenyl)-2-(2-(4-methyl-1H-1,2,3-triazol-1-yl)acetamido)propanamide]
≤ 300 nM | O=C(Cc1cnc[nH]1)N[C@@H](COCc1ccccc1)C(=O)Nc1ccc(Oc2ccc(Cl)cc2)c(Cl)c1 [Compound 154, (S)-2-(2-(1H-imidazol-4-yl)acetamido)-3-(benzyloxy)-N-(3-chloro-4-(4-chlorophenoxy)phenyl)propanamide]
≤ 300 nM | O=C(CN1CCOCC1)N[C@@H](COCc1ccccc1)C(=O)Nc1ccc(Oc2ccc(F)cc2)cc1 [Compound 155, (S)-3-(benzyloxy)-N-(4-(4-fluorophenoxy)phenyl)-2-(2-morpholinoacetamido)propanamide]
≤ 300 nM | O=C(Cc1c[nH]cn1)N[C@@H](COCc1ccccc1)C(=O)Nc1ccc(Oc2ncc(Br)s2)cc1 [Compound 156, (S)-2-(2-(1H-imidazol-4-yl)acetamido)-3-(benzyloxy)-N-(4-(5-bromothiazol-2-yloxy)phenyl)propanamide]
≤ 300 nM | O=C(Cc1cnc[nH]1)N[C@@H](CCc1ccccc1)C(=O)Nc1ccc(Oc2ccc(Cl)cc2)cc1 [Compound 157, (S)-2-(2-(1H-imidazol-5-yl)acetamido)-N-(4-(4-chlorophenoxy)phenyl)-4-phenylbutanamide]
≤ 300 nM | Cc1ccc(Oc2ccc(NC(=O)[C@H](COCc3ccccc3)NC(=O)Cc3c[nH]cn3)cc2)cc1 [Compound 158, (S)-2-(2-(1H-imidazol-5-yl)acetamido)-3-(benzyloxy)-N-(4-(p-tolyloxy)phenyl)propanamide]
≤ 300 nM | O=C(Cc1cnccn1)N[C@@H](COCc1ccccc1)C(=O)Nc1ccc(Oc2ccc(F)cc2)cc1 [Compound 159, (S)-3-(benzyloxy)-N-(4-(4-fluorophenoxy)phenyl)-2-(2-(pyrazin-2-yl)acetamido)propanamide]
≤ 300 nM | Cc1nccn1CC(=O)N[C@@H](COCc1ccccc1)C(=O)Nc1ccc(Oc2ccc(F)cc2)cc1 [Compound 160, (S)-3-(benzyloxy)-N-(4-(4-fluorophenoxy)phenyl)-2-(2-(2-methyl-1H-imidazol-1-yl)acetamido)propanamide]
≤ 300 nM | CC(C)(C(=O)N[C@@H](COCc1ccc(F)cc1)C(=O)Nc1ccc(Oc2ccc(F)cc2)cc1)c1c[nH]cn1 [Compound 161, (S)-2-(2-(1H-imidazol-4-yl)-2-methylpropanamido)-3-(4-fluorobenzyloxy)-N-(4-(4-fluorophenoxy)phenyl)propanamide]
≤ 300 nM | Cc1nc(CC(=O)N[C@@H](COCc2ccccc2)C(=O)Nc2ccc(Oc3ccc(F)cc3)cc2)c[nH]1 [Compound 162, (S)-3-(benzyloxy)-N-(4-(4-fluorophenoxy)phenyl)-2-(2-(2-methyl-1H-imidazol-4-yl)acetamido)propanamide]
≤ 300 nM | CC(=O)N[C@@H](COCc1ccc(F)cc1)C(=O)Nc1ccc(Oc2ccc(F)cc2)cc1 [Compound 164, (S)-2-acetamido-3-(4-fluorobenzyloxy)-N-(4-(4-fluorophenoxy)phenyl)propanamide]
≤ 300 nM | O=C(Cn1cncn1)N[C@@H](CCCNC(=O)OCc1ccccc1)C(=O)Nc1ccc(Oc2ccc(F)cc2)cc1 [Compound 165, (S)-benzyl 4-(2-(1H-1,2,4-triazol-1-yl)acetamido)-5-(4-(4-fluorophenoxy)phenylamino)-5-oxopentylcarbamate]
≤ 300 nM | Cc1cc(CC(=O)N[C@@H](COCc2ccccc2)C(=O)Nc2ccc(Oc3ccc(F)cc3)cc2)[nH]n1 [Compound 166, (S)-3-(benzyloxy)-N-(4-(4-fluorophenoxy)phenyl)-2-(2-(3-methyl-1H-pyrazol-5-yl)acetamido)propanamide]
≤ 300 nM | CC(C(=O)N[C@@H](COCc1ccccc1)C(=O)Nc1ccc(Oc2ccc(F)cc2)cc1)c1c[nH]cn1 (stereo partly drawn) [Compound 167, (2S)-2-(2-(1H-imidazol-4-yl)propanamido)-3-(benzyloxy)-N-(4-(4-fluorophenoxy)phenyl)propanamide]

IC50 | Compound
≤ 300 nM | O=C(Cc1c[nH]cn1)N[C@@H](COCc1ccc(F)cc1)C(=O)Nc1ccc(Oc2ccc(Br)cc2)cc1 [Compound 168, (S)-2-(2-(1H-imidazol-5-yl)acetamido)-N-(4-(4-bromophenoxy)phenyl)-3-(4-fluorobenzyloxy)propanamide]
≤ 300 nM | O=C(Nc1ccc(Oc2ccc(F)cc2)cc1)[C@@H]1C[C@@H](Cc2c(F)cc(F)cc2F)CN1C(=O)Cn1nccn1 [Compound 169, (2S,4R)-1-(2-(2H-1,2,3-triazol-2-yl)acetyl)-N-(4-(4-fluorophenoxy)phenyl)-4-(2,4,6-trifluorobenzyl)pyrrolidine-2-carboxamide]
≤ 300 nM | O=C(Nc1ccc(Oc2ccc(F)cc2)cc1)[C@@H]1C[C@@H](Cc2c(F)cc(F)cc2F)CN1C(=O)Cn1ccnn1 [Compound 170, (2S,4R)-1-(2-(1H-1,2,3-triazol-1-yl)acetyl)-N-(4-(4-fluorophenoxy)phenyl)-4-(2,4,6-trifluorobenzyl)pyrrolidine-2-carboxamide]
≤ 300 nM | Cc1cccc(C[C@@H]2C[C@@H](C(=O)Nc3ccc(Oc4ccc(F)cc4)cc3)N(C(=O)Cn3cncn3)C2)c1 [Compound 171, (2S,4R)-1-(2-(1H-1,2,4-triazol-1-yl)acetyl)-N-(4-(4-fluorophenoxy)phenyl)-4-(3-methylbenzyl)pyrrolidine-2-carboxamide]
≤ 300 nM | Cc1noc(C)c1NC(=O)N[C@@H](COCc1ccccc1)C(=O)Nc1ccc(Oc2ccc(F)cc2)cc1 [Compound 172, (S)-2-(3-(3,5-dimethylisoxazol-4-yl)ureido)-3-benzyloxy-N-(4-(4-fluorophenoxy)phenyl)propanamide]
≤ 300 nM | O=C(Nc1ccc(Oc2ccc(F)cc2)cc1)[C@@H]1C[C@@H](NCc2ccccc2)CN1C(=O)Cc1cnc[nH]1 [Compound 173, (2S,4R)-1-(2-(1H-imidazol-5-yl)acetyl)-4-(benzylamino)-N-(4-(4-fluorophenoxy)phenyl)pyrrolidine-2-carboxamide]
≤ 300 nM | O=C(Cn1ccnn1)N[C@@H](COCc1ccccc1)C(=O)Nc1ccc(Oc2ccc(F)cc2)cc1 [Compound 174, (S)-2-(2-(1H-1,2,3-triazol-1-yl)acetamido)-3-(benzyloxy)-N-(4-(4-fluorophenoxy)phenyl)propanamide]
≤ 300 nM | O=C(Nc1ccc(Oc2ccc(F)cc2)cc1)[C@@H]1C[C@@H](Cc2ccccc2)CN1C(=O)Cn1nnc2ccccc21 [Compound 176, (2S,4R)-1-(2-(1H-benzo[d][1,2,3]triazol-1-yl)acetyl)-4-benzyl-N-(4-(4-fluorophenoxy)phenyl)pyrrolidine-2-carboxamide]
≤ 300 nM | Cc1cc(CC(=O)N2C[C@H](Cc3ccccc3)C[C@H]2C(=O)Nc2ccc(Oc3ccc(F)cc3)cc2)n[nH]1 [Compound 177, (2S,4R)-4-benzyl-N-(4-(4-fluorophenoxy)phenyl)-1-(2-(5-methyl-1H-pyrazol-3-yl)acetyl)pyrrolidine-2-carboxamide]
≤ 300 nM | O=C(Cn1cncn1)N[C@@H](COCc1ccccc1)C(=O)Nc1ccc(Sc2ccc(F)cc2)cc1 [Compound 178, (S)-2-(2-(1H-1,2,4-triazol-1-yl)acetamido)-3-(benzyloxy)-N-(4-(4-fluorophenylthio)phenyl)propanamide]
≤ 300 nM | O=C(Nc1ccc(Oc2ccc(F)cc2)cc1)[C@@H]1C[C@@H](NCc2ccccc2)CN1C(=O)Cn1cncn1 [Compound 179, (2S,4R)-1-(2-(1H-1,2,4-triazol-1-yl)acetyl)-4-(benzylamino)-N-(4-(4-fluorophenoxy)phenyl)pyrrolidine-2-carboxamide]
≤ 300 nM | O=C(Nc1ccc(Oc2ccc(F)cc2)cc1)[C@@H]1C[C@@H](Cc2ccc(Cl)cc2Cl)CN1C(=O)Cn1cncn1 [Compound 180, (2S,4R)-1-(2-(1H-1,2,4-triazol-1-yl)acetyl)-4-(2,4-dichlorobenzyl)-N-(4-(4-fluorophenoxy)phenyl)pyrrolidine-2-carboxamide]
≤ 300 nM | O=C(Cn1cncn1)N[C@@H](COCc1ccccc1Cl)C(=O)Nc1ccc(Oc2ccc(F)cc2)cc1 [Compound 181, (S)-2-(2-(1H-1,2,4-triazol-1-yl)acetamido)-3-(2-chlorobenzyloxy)-N-(4-(4-fluorophenoxy)phenyl)propanamide]
≤ 300 nM | O=C(Nc1ccc(Oc2ccc(F)cc2)cc1)[C@@H]1C[C@@H](NCc2ccsc2)CN1C(=O)Cn1cncn1 [Compound 182, (2S,4R)-1-(2-(1H-1,2,4-triazol-1-yl)acetyl)-N-(4-(4-fluorophenoxy)phenyl)-4-(thien-3-ylmethylamino)pyrrolidine-2-carboxamide]
300 to 1000 nM | O=C(Cc1ccccc1F)NC(COCc1ccccc1)C(=O)Nc1ccc(Oc2ccccc2)cc1 (stereo not drawn) [Compound 183, 3-(benzyloxy)-2-(2-(2-fluorophenyl)acetamido)-N-(4-phenoxyphenyl)propanamide]
300 to 1000 nM | O=C(NC(COCc1ccccc1)C(=O)Nc1ccc(Oc2ccccc2)cc1)c1cccc2[nH]ccc12 (stereo not drawn) [Compound 184, N-(3-(benzyloxy)-1-oxo-1-(4-phenoxyphenylamino)propan-2-yl)-1H-indole-4-carboxamide]

Compound | IC50
O=C(Nc1ccc(Oc2ccc(F)cc2)cc1)[C@@H]1CN(Cc2ccccc2)CCN1C(=O)Cc1cnc[nH]1 [Compound 175, (S)-1-(2-(1H-imidazol-4-yl)acetyl)-4-benzyl-N-(4-(4-fluorophenoxy)phenyl)piperazine-2-carboxamide] | ≤ 300 nM
